Measurements: ChEMBL document CHEMBL1772970, “Potent bivalent Smac mimetics: effect of the linker on binding to inhibitor of apoptosis proteins (IAPs) and anticancer activity” (J Med Chem, 2011)
Activity calls are given as the source filed them. The rule behind the calls is not given here.

Columns and labels:
[1] = test system: Mus musculus; experiment: Toxicity in SCID mouse xenografted with human MDA-MB-231 cells assessed as weight loss at […], iv administered on day 2 and 9; assay type: organism-based; parameters: dose 7.5 mg/kg, route intravenous; settings: in vivo
[2] = test system: MDA-MB-231; experiment: Drug uptake in human MDA-MB-231 cells assessed as intracellular concentration at 300 nM after 1 min by LC-MS/MS; assay type: ADME, cell-based; settings: mda-mb-231, 1 min, 0.3 µM
[3] = test system: MDA-MB-231; experiment: Drug uptake in human MDA-MB-231 cells assessed as intracellular concentration at 300 nM after 3 hrs by LC-MS/MS; assay type: ADME, cell-based; settings: mda-mb-231, 3 h, 0.3 µM
[4] = test system: MDA-MB-231; experiment: Induction of apoptosis in human MDA-MB-231 cells assessed as cIAP2 degradation at 1 nM after 24 hrs by Western blotting; assay type: functional, cell-based
[5] = test system: MDA-MB-231; experiment: Induction of apoptosis in human MDA-MB-231 cells assessed as cIAP1 degradation at 1 nM after 24 hrs by Western blotting; assay type: functional, cell-based
[6] = test system: MDA-MB-231; experiment: Induction of apoptosis in human MDA-MB-231 cells assessed as caspase-3 processing at 3 nM after 24 hrs by Western blotting; assay type: functional, cell-based
[7] = test system: MDA-MB-231; experiment: Induction of apoptosis in human MDA-MB-231 cells assessed as PARP cleavage at 3 nM after 24 hrs by Western blotting; assay type: functional, cell-based
[8] = test system: MDA-MB-231; experiment: Induction of apoptosis in human MDA-MB-231 cells assessed as caspase-3 processing at 30 nM after 24 hrs by Western blotting; assay type: functional, cell-based
[9] = test system: MDA-MB-231; experiment: Induction of apoptosis in human MDA-MB-231 cells assessed as PARP cleavage at 30 nM after 24 hrs by Western blotting; assay type: functional, cell-based
[10] = test system: MDA-MB-231; experiment: Induction of apoptosis in human MDA-MB-231 cells assessed as cIAP2 degradation at 30 nM after 24 hrs by Western blotting; assay type: functional, cell-based
[11] = test system: MDA-MB-231; experiment: Antitumor activity against human MDA-MB-231 cells xenografted in SCID mouse assessed as inhibition tumor growth intravenously administered on day 1 to 5 and 8 to 12 post tumor implantation; assay type: functional, cell-based
[12] = test system: Mus musculus; experiment: Toxicity in SCID mouse xenografted with human MDA-MB-231 cells assessed as weight loss at 5 mg/kg, iv administered on day 1 to 5 and 8 to 12 post tumor implantation; assay type: organism-based; parameters: dose 5 mg/kg, route intravenous; settings: in vivo
[13] = test system: MDA-MB-231; experiment: Antitumor activity against human MDA-MB-231 cells xenografted in SCID mouse assessed as tumor size at 5 mg/kg, iv administered on day 1 to 5 and 8 to 12 post tumor implantation measured on day 50 (reference value: 1136 mm'3); assay type: functional
[14] = test system: MDA-MB-231; settings: Homo sapiens, 5 mg/kg
[15] = test system: MDA-MB-231; experiment: cells; settings: Homo sapiens
[16] = biological target: T1, E3 ubiquitin-protein ligase XIAP (Homo sapiens, UniProt P98170); experiment: Competitive inhibition of His-tagged human XIAP BIR3 domain expressed in Escherichia coli BL21(DE3) after 2 to 3 hrs by fluorescence polarization assay
[17] = biological target: T1, E3 ubiquitin-protein ligase XIAP
[18] = biological target: T1, E3 ubiquitin-protein ligase XIAP; experiment: Competitive inhibition of human XIAP linker BIR2-BIR3 domain expressed in Escherichia coli BL21(DE3) cells by fluorescence polarization-based assay
[19] = biological target: T1, E3 ubiquitin-protein ligase XIAP; experiment: biochemical
[20] = test system: MDA-MB-231; experiment: Induction of apoptosis in human MDA-MB-231 cells assessed as caspase-3 processing at 10 nM after 24 hrs by Western blotting; assay type: functional, cell-based
[21] = test system: MDA-MB-231; experiment: Induction of apoptosis in human MDA-MB-231 cells assessed as cIAP1 degradation at 10 nM after 24 hrs by Western blotting; assay type: functional, cell-based
[22] = test system: MDA-MB-231; experiment: Induction of apoptosis in human MDA-MB-231 cells assessed as cIAP2 degradation at 10 nM after 24 hrs by Western blotting; assay type: functional, cell-based
[23] = biological target: T2, Baculoviral IAP repeat-containing protein 2 (Homo sapiens, UniProt Q13490); experiment: Competitive inhibition of human cIAP1BIR2-BIR3 domain after 2 to 3 hrs by fluorescence polarization assay
[24] = biological target: T2, Baculoviral IAP repeat-containing protein 2; experiment: Competitive inhibition of human cIAP1 BIR3 domain after 2 to 3 hrs by fluorescence polarization assay
[25] = biological target: T2, Baculoviral IAP repeat-containing protein 2; experiment: Binding affinity to human cIAP1 BIR3 domain after 2 to 3 hrs by fluorescence polarization-based assay
[26] = biological target: T2, Baculoviral IAP repeat-containing protein 2; experiment: Binding affinity to human cIAP1 BIR2-BIR3 domain after 2 to 3 hrs by fluorescence polarization-based assay

Question: `CC(=O)O[C@@]12CO[C@@H]1C[C@H](O)[C@@]1(C)C(=O)[C@H](O)C3=C(C)[C@@H](OC(=O)[C@H](O)[C@@H](NC(=O)OC(C)(C)C)c4ccccc4)C[C@@](O)([C@@H](OC(=O)c4ccccc4)[C@H]21)C3(C)C.O.O.O` [DOCETAXEL] was tested. Which Activity [1] did it give?
Answer: Toxic

Question: With `CN[C@@H](C)C(=O)N[C@H]1CCCC[C@H]2CC[C@@H](C(=O)N[C@@H](c3ccccc3)c3cn(CCOCCOCCOCCn4cc([C@@H](NC(=O)[C@@H]5CC[C@@H]6CCCC[C@H](NC(=O)[C@H](C)NC)C(=O)N65)c5ccccc5)nn4)nn3)N2C1=O` as the molecule, how does the Drug uptake [2] read?
Answer: 6.7 nM

Question: And the Drug uptake [3]?
Answer: 7.3 nM

Question: What does the source list for `CN[C@@H](C)C(=O)N[C@H]1CCCC[C@H]2CC[C@@H](C(=O)N[C@@H](c3ccccc3)c3cn(CCCCCCc4ccc(CCCCCCn5cc([C@@H](NC(=O)[C@@H]6CC[C@@H]7CCCC[C@H](NC(=O)[C@H](C)NC)C(=O)N76)c6ccccc6)nn5)cc4)nn3)N2C1=O`?
Answer: Activity [4]: Active; Activity [5]: Active; Activity [6]: Active; Activity [7]: Active

Question: With `CN[C@@H](C)C(=O)N[C@H]1CCCC[C@H]2CC[C@@H](C(=O)N[C@@H](c3ccccc3)c3cn(CCc4ccc(CCn5cc([C@@H](NC(=O)[C@@H]6CC[C@@H]7CCCC[C@H](NC(=O)[C@H](C)NC)C(=O)N76)c6ccccc6)nn5)cc4)nn3)N2C1=O` as the molecule, how does the Activity [8] read?
Answer: inactive

Question: What about the Activity [9] of the same molecule?
Answer: inactive

Question: What about the Activity [10] of the same molecule?
Answer: Active

Question: And the Drug uptake [3]?
Answer: 67.7 nM

Question: `CN[C@@H](C)C(=O)N[C@H]1CCCC[C@H]2CC[C@@H](C(=O)N[C@@H](c3ccccc3)c3cn(CCCCCOCCCCCn4cc([C@@H](NC(=O)[C@@H]5CC[C@@H]6CCCC[C@H](NC(=O)[C@H](C)NC)C(=O)N65)c5ccccc5)nn4)nn3)N2C1=O` was tested. Which Activity [11] did it give?
Answer: Dose-dependent effect

Question: And the Activity [12]?
Answer: Toxic

Question: What about the Activity [13] of the same molecule?
Answer: 269 mm3

Question: And the inhibition [14]?
Answer: Active

Question: Which results are given for `CC(=O)N[C@@H](Cc1c[nH]c2ccccc12)C(=O)N[C@H]1CCCC[C@H]2CC[C@@H](C(=O)N[C@@H](c3ccccc3)c3cn(CCCCc4ccc(CCCCn5cc([C@@H](NC(=O)[C@@H]6CC[C@@H]7CCCC[C@H](NC(=O)[C@H](Cc8c[nH]c9ccccc89)NC(C)=O)C(=O)N76)c6ccccc6)nn5)cc4)nn3)N2C1=O`?
Answer: IC50 [15]: > 100000 nM; IC50 [16]: > 50000 nM; Ki [17]: > 10000 nM; IC50 [18]: > 50000 nM; Ki [19]: > 10000 nM

Question: What does the source list for `CN[C@@H](C)C(=O)N[C@H]1CCCC[C@H]2CC[C@@H](C(=O)N[C@@H](c3ccccc3)c3cn(CCCc4ccc(CCCn5cc([C@@H](NC(=O)[C@@H]6CC[C@@H]7CCCC[C@H](NC(=O)[C@H](C)NC)C(=O)N76)c6ccccc6)nn5)cc4)nn3)N2C1=O`?
Answer: Activity [20]: Active; Activity [21]: Active; Activity [7]: Active; Activity [22]: Active

Question: With `CN[C@@H](C)C(=O)N[C@H]1CCCC[C@H]2CC[C@@H](C(=O)N[C@@H](c3ccccc3)c3cn(CCCCc4ccc(CCCCn5cc([C@@H](NC(=O)[C@@H]6CC[C@@H]7CCCC[C@H](NC(=O)[C@H](C)NC)C(=O)N76)c6ccccc6)nn5)cc4)nn3)N2C1=O` as the molecule, how does the Activity [4] read?
Answer: Active

Question: And the IC50 [15]?
Answer: 3.3 nM

Question: What about the IC50 [23] of the same molecule?
Answer: 5.7 nM

Question: What about the IC50 [24] of the same molecule?
Answer: 4.6 nM

Question: What about the Drug uptake [2] of the same molecule?
Answer: 106 nM

Question: What about the Ki [25] of the same molecule?
Answer: < 1 nM

Question: And the Activity [5]?
Answer: Active

Question: What about the Ki [26] of the same molecule?
Answer: 1.5 nM

Question: What about the Activity [6] of the same molecule?
Answer: Active

Question: And the Activity [7]?
Answer: Active

Question: And the Drug uptake [3]?
Answer: 541 nM

Question: `CN[C@@H](C)C(=O)N[C@H]1CCCC[C@H]2CC[C@@H](C(=O)N[C@@H](c3ccccc3)c3cn(Cc4ccc(Cn5cc([C@@H](NC(=O)[C@@H]6CC[C@@H]7CCCC[C@H](NC(=O)[C@H](C)NC)C(=O)N76)c6ccccc6)nn5)cc4)nn3)N2C1=O` was tested. Which Drug uptake [2] did it give?
Answer: 21.2 nM

Question: And the Activity [8]?
Answer: inactive

Question: And the Activity [9]?
Answer: inactive

Question: And the Drug uptake [3]?
Answer: 75.2 nM
